Measured values as given in ChEMBL document CHEMBL1201862, “PubChem BioAssay data set” (2004).
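Exposure lasted 48 hours, with cells grown in 96-well plates and compounds tested at five concentrations. The concentration for 50% growth inhibition is given as GI50.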 Calls of active or inactive are those of the source. Cut-off read from the data, not from the text of the source: active = GI50 up to about 1.1 µM and inactive = higher.

Columns and labels:
Assay in all cases: NCI tumour cell line growth inhibition, 48 h
SNB-78 = system: SNB-78
XF498 = system: XF498
DMS-114 = system: DMS-114
DMS-273 = system: DMS-273
KM-20L2 = system: KM-20L2
LXFL 529 = system: LXFL 529
M19-MEL = system: M19-MEL
RXF 631 = system: RXF 631
HOP-18 = system: HOP-18

SMILES	GI50 (SNB-78)	GI50 (XF498)	GI50 (DMS-114)	GI50 (DMS-273)	GI50 (KM-20L2)	GI50 (LXFL 529)	GI50 (M19-MEL)	GI50 (RXF 631)	GI50 (HOP-18)
Cc1ccc(NC(=O)CC2C(=O)Nc3ccccc3S2(=O)=O)c(C)c1 (stereo not drawn)	18.1 µM (inactive)	14.8 µM (inactive)	15 µM (inactive)	10.7 µM (inactive)	13.8 µM (inactive)	16.7 µM (inactive)	–	–	–
NNC(=O)CCC(=O)Nc1cc(Cl)c(Cl)cc1Cl	> 100 µM (inactive)	> 100 µM (inactive)	> 100 µM (inactive)	> 100 µM (inactive)	> 100 µM (inactive)	> 100 µM (inactive)	> 100 µM (inactive)	> 100 µM (inactive)	–
O=[N+]([O-])c1ccc(-c2ccc(C3=Nn4c(nnc4-c4ccc(Cl)cc4)SC3)o2)cc1	–	24.9 µM (inactive)	> 100 µM (inactive)	67.9 µM (inactive)	> 100 µM (inactive)	> 100 µM (inactive)	> 100 µM (inactive)	> 53.3 µM (inactive)	> 100 µM (inactive)
O=C(c1nc2ccccc2nc1O)C(O)c1ccccc1 (stereo not drawn)	> 100 µM (inactive)	–	48.6 µM (inactive)	60.3 µM (inactive)	46.5 µM (inactive)	50.2 µM (inactive)	90.8 µM (inactive)	–	–
CCOC(=O)C1=C(O)C(=O)c2c(OC)ccc(OC)c2C1=O	> 100 µM (inactive)	> 100 µM (inactive)	> 100 µM (inactive)	> 100 µM (inactive)	> 100 µM (inactive)	–	> 100 µM (inactive)	–	32.5 µM (inactive)
CN(CCO)c1nc(N)cc(=O)[nH]1	> 100 µM (inactive)	> 100 µM (inactive)	> 100 µM (inactive)	> 100 µM (inactive)	> 100 µM (inactive)	> 100 µM (inactive)	> 100 µM (inactive)	–	> 100 µM (inactive)
Oc1ccc(-c2c3ccccc3c(-c3ccc(O)cc3)c3ccccc23)cc1	> 100 µM (inactive)	> 100 µM (inactive)	> 100 µM (inactive)	> 100 µM (inactive)	> 100 µM (inactive)	91.6 µM (inactive)	> 100 µM (inactive)	–	> 100 µM (inactive)
CC1=C(NC(=O)/C(=N/NC(=S)NN)C2C(=O)CC(C)(C)CC2=O)C(=O)c2ccccc2C1=O	15.2 µM (inactive)	14.9 µM (inactive)	2.12 µM (inactive)	6.21 µM (inactive)	11.4 µM (inactive)	11.4 µM (inactive)	1.33 µM (inactive)	7.8 µM (inactive)	15.7 µM (inactive)
O=C(c1ccccc1)c1ccc(OCCOc2ccc(Nc3ccccc3)cc2)cc1	35.2 µM (inactive)	16.1 µM (inactive)	6.84 µM (inactive)	> 100 µM (inactive)	> 100 µM (inactive)	41.1 µM (inactive)	70.3 µM (inactive)	17.7 µM (inactive)	65.5 µM (inactive)
CC1C[C@H](OC(N)=O)C(C)CC1=O (stereo partly drawn)	> 100 µM (inactive)	> 100 µM (inactive)	> 100 µM (inactive)	> 100 µM (inactive)	> 100 µM (inactive)	> 100 µM (inactive)	> 100 µM (inactive)	–	> 100 µM (inactive)
CC(=O)CC(N)=O	> 100 µM (inactive)	> 100 µM (inactive)	> 100 µM (inactive)	> 100 µM (inactive)	> 100 µM (inactive)	> 100 µM (inactive)	> 100 µM (inactive)	> 100 µM (inactive)	> 100 µM (inactive)
NC(=O)CCC(NC(=O)Cc1ccccc1)C(=O)O (stereo not drawn)	–	–	> 2470 µM (inactive)	> 2470 µM (inactive)	> 2470 µM (inactive)	> 2470 µM (inactive)	> 2470 µM (inactive)	–	–
Cn1cc(NC(=O)c2cc(NC(=O)CCCCCCCCCC(=O)Nc3cc(C(=O)Nc4cc(C(=O)NCCC(=N)N)n(C)c4)n(C)c3)cn2C)cc1C(=O)NCCC(=N)N	37.2 µM (inactive)	32.9 µM (inactive)	84.9 µM (inactive)	33.2 µM (inactive)	31.2 µM (inactive)	24.5 µM (inactive)	34.1 µM (inactive)	–	35.3 µM (inactive)
C/C(CC(=O)Nc1cccc(Cl)c1C)=N\NC(N)=S	> 100 µM (inactive)	> 100 µM (inactive)	–	–	> 100 µM (inactive)	> 100 µM (inactive)	> 100 µM (inactive)	> 100 µM (inactive)	–
CCOP12(OCC)NC(=O)OC1(C(F)(F)F)c1ccccc1O2 (stereo not drawn)	> 100 µM (inactive)	–	> 100 µM (inactive)	> 100 µM (inactive)	–	> 100 µM (inactive)	> 100 µM (inactive)	–	> 100 µM (inactive)
C#CCSc1nc(N)c2ncn(C3OC(CO)C(O)C3O)c2n1 (stereo not drawn)	> 100 µM (inactive)	> 100 µM (inactive)	> 100 µM (inactive)	> 100 µM (inactive)	–	> 100 µM (inactive)	> 100 µM (inactive)	–	–
O=C(CSc1nnc(Cc2ccccc2)o1)Nc1ccccc1	> 100 µM (inactive)	–	> 100 µM (inactive)	> 100 µM (inactive)	> 100 µM (inactive)	> 100 µM (inactive)	> 100 µM (inactive)	–	> 100 µM (inactive)
CC1=NN(c2ccccc2)C(=O)/C1=C\c1ccc([N+](=O)[O-])cc1	28.4 µM (inactive)	16.6 µM (inactive)	20.8 µM (inactive)	25 µM (inactive)	22.8 µM (inactive)	32.1 µM (inactive)	–	29.5 µM (inactive)	< 0.01 µM (active)
C=C1CCC2(C(C)=O)COC1(C)O2 (stereo not drawn)	–	62.2 µM (inactive)	> 100 µM (inactive)	> 100 µM (inactive)	–	–	> 100 µM (inactive)	–	> 100 µM (inactive)
O=C1Cc2ccccc2CCc2ccccc21	> 100 µM (inactive)	–	47 µM (inactive)	> 100 µM (inactive)	> 100 µM (inactive)	> 100 µM (inactive)	> 100 µM (inactive)	–	> 100 µM (inactive)
O=S(O)CCCCCSSCCCCSSCCCCCS(=O)O	> 100 µM (inactive)	46.8 µM (inactive)	> 100 µM (inactive)	> 100 µM (inactive)	> 100 µM (inactive)	79.6 µM (inactive)	> 100 µM (inactive)	> 100 µM (inactive)	> 100 µM (inactive)
Cc1ccc(/C=C/C(=O)c2sc(-c3nc(C)c(C(=O)/C=C/c4ccc(C)cc4)s3)nc2C)cc1	> 100 µM (inactive)	–	> 100 µM (inactive)	> 100 µM (inactive)	> 100 µM (inactive)	–	> 100 µM (inactive)	> 100 µM (inactive)	> 100 µM (inactive)
COC1C2c3ccccc3C(C#N)(Cc3ccc4c(c32)OCO4)N1C(=O)c1ccccc1 (stereo not drawn)	47.8 µM (inactive)	21.3 µM (inactive)	19.6 µM (inactive)	5.65 µM (inactive)	43.1 µM (inactive)	46 µM (inactive)	–	> 100 µM (inactive)	80.7 µM (inactive)
